The source of these data is patent publication US8772448B2, “Peptides immunoreactive with autoantibodies from patients suffering from rheumatoid arthritis” (Stichting Voor de Technische Wetenschappen, priority 1996, dated 2014).

Where no end group is shown, it is not given here. [ ]: non-standard residue; d: D form. Cit = NC(=O)NCCC[C@H](N)C(=O)O

For assay [1], the system named is autoimmune antibodies in sera from patients suffering from rheumatoid arthritis. The experiment in a line: ELISA of coupled peptides with RA sera. The class given is binding, human. Particulars: n = 134 RA sera, positive = OD450 of 0.2 after deduction of blank; for RA sera: number of positive sera: sera diluted 200 times. As to the method: (§1) Detection by Means of ELISA
Via an N-oxysuccinimide surface the peptides were covalently coupled to the wells of 96-well microtitre plates (Costar amide binding plates) in an amount of 1 ? g/well. Coupling took place for 16 hours at 4EC and pH 9.0. The plates were blocked for 1 hour with 2% bovine serum albumin. The sera were diluted 200 times in a diluent (0.3% BSA, 350 mM NaCl, 10 mM Tris-HCl pH 7.6, 1% vol./vol. Triton X-100, 0.5% w./vol. Na-deoxycholate, 0.1% SDS) supplemented with 10% normal rabbit serum, and incubated for one hour at room temperature. After washing the plates (3 times with PBS containing 0.05 by vol. of Tween® 20), 100 ? l of antihuman IgG conjugated with peroxidase (Dako P214), 1000 times diluted in dilution buffer, was added to the wells. After incubation for 1 hour at room temperature, the plates were washed 3 times with PBS/Tween®, and bound antibodies were detected with tetramethyl benzidine as a substrate. After 10 minutes the reaction was stopped by adding 100 ? l of 2 M sulphuric acid per well. Readout occurred at 450 nm. Sera having an OD450 of 0.2, after deduction of the blank for the respective serum (a well without a coupled peptide), were considered to be positive. […]

In assay [2] the test system is antibodies in control sera from patients suffering from rheumatic diseases other than RA. The experiment in a line: ELISA of coupled peptides with control sera. The class given is binding, human. Particulars: for control sera (%) positive / control sera: number of positive sera: n = 154, rheumatic diseases other than RA. As to the method:
as §1
(§2) Via an N-oxysuccinimide surface the peptides were covalently coupled to the wells of 96-well microtitre plates (Costar amide binding plates) in an amount of 1 ? g/well. Coupling took place for 16 hours at 4EC and pH 9.0. The plates were blocked for 1 hour with 2% bovine serum albumin. The sera were diluted 200 times in a diluent (0.3% BSA, 350 mM NaCl, 10 mM Tris-HCl pH 7.6, 1% vol./vol. Triton X-100, 0.5% w./vol. Na-deoxycholate, 0.1% SDS) supplemented with 10% normal rabbit serum, and incubated for one hour at room temperature. After washing the plates (3 times with PBS containing 0.05 by vol. of Tween® 20), 100 ? l of antihuman IgG conjugated with peroxidase (Dako P214), 1000 times diluted in dilution buffer, was added to the wells. After incubation for 1 hour at room temperature, the plates were washed 3 times with PBS/Tween®, and bound antibodies were detected with tetramethyl benzidine as a substrate. After 10 minutes the reaction was stopped by adding 100 ? l of 2 M sulphuric acid per well. Readout occurred at 450 nm. Sera having an OD450 of 0.2, after deduction of the blank for the respective serum (a well without a coupled peptide), were considered to be positive.
In total, 288 sera from patients suffering from rheumatoid diseases were used, 132 of which were from patients suffering from rheumatoid arthritis.
A general note: ELISA stands for enzyme-linked immunosorbent assay.

Assay [3] concerns antibodies in SLE (systemic lupus erythematosus) sera. Description: ELISA of coupled peptides with SLE sera. Format: binding, human. The conditions noted are these: n = 50. As to the method: as §1, §2
The subject of assay [4] is antibodies in SSC (systemic scleroderma) sera. Description: ELISA of coupled peptides with SSC sera. Format: binding, human. Particulars: n = 50. As to the method: as §1, §2
The subject of assay [5] is antibodies in pSS (primary Sjögren's syndrome) sera. The experiment in a line: ELISA of coupled peptides with pSS sera. The class given is binding, human. Particulars: n = 50. As to the method: as §1, §2
Assay [6] deals with antibodies in PM/DM (polymyositis/dermatomyositis) sera. The experiment in a line: ELISA of coupled peptides with PM/DM sera. Format: binding, human. The conditions noted are these: n = 50. As to the method:
as §1, §2

Assay [7] relates to antibodies in sera from patients suffering from various infectious diseases. Description: ELISA with sera from patients suffering from various infectious diseases. The class given is binding, human. The conditions noted are these: 308 tested sera.
In assay [8] the test system is recombinant monoclonal antibody described by applicants. Description: Reactivity of peptides with the recombinant monoclonal antibody. Format: binding.

As for “SHQESTXGRSRGRSGRSGS (SHQEST[Cit]GRSRGRSGRSGS-NH2; N-terminus assumed; SMILES C[C@@H](O)[C@H](NC(=O)[C@H](CO)NC(=O)[C@H](CCC(=O)O)NC(=O)[C@H](CCC(N)=O)NC(=O)[C@H](Cc1c[nH]cn1)NC(=O)[C@@H](N)CO)C(=O)N[C@@H](CCCNC(N)=O)C(=O)NCC(=O)N[C@@H](CCCNC(=N)N)C(=O)N[C@@H](CO)C(=O)N[C@@H](CCCNC(=N)N)C(=O)NCC(=O)N[C@@H](CCCNC(=N)N)C(=O)N[C@@H](CO)C(=O)NCC(=O)N[C@@H](CCCNC(=N)N)C(=O)N[C@@H](CO)C(=O)NCC(=O)N[C@@H](CO)C(N)=O) [cfc1]”, in assay [1], the “RA sera (%) positive” value turned out to be 36% and the “RA sera: number of positive sera” value was 49. In addition, the “RA sera (%) positive” value in assay [1] (listed as Formula II) is “about 36%”. In assay [2], the “control sera (%) positive” value is given as 0.6% and the “control sera: number of positive sera” value stood at 1. Moreover, in assay [2] (other autoimmune diseases and healthy individuals), the “percentage of false positives” value is “less than 2%”. Besides, in assay [3], the “SLE (%) positive” value was determined as 2% and the “SLE: number of positive sera” value stood at 1. The “SSC: number of positive sera” value in assay [4] was 0. For the same sequence, the “pSS: number of positive sera” value in assay [5] worked out at 0. In addition, in assay [6], the “PM/DM: number of positive sera” value is given as 0. Moreover, in assay [7], the “infectious disease sera: number positive” value stood at 9 and the “specificity in respect of infectious disease sera” value was 97%. For the same sequence, the “reactivity with the recombinant monoclonal antibody” value in assay [8] was “reactive”.
As to “SHQESTRGXSRGRSGRSGS (SHQESTRG[Cit]SRGRSGRSGS-NH2; N-terminus assumed; SMILES C[C@@H](O)[C@H](NC(=O)[C@H](CO)NC(=O)[C@H](CCC(=O)O)NC(=O)[C@H](CCC(N)=O)NC(=O)[C@H](Cc1c[nH]cn1)NC(=O)[C@@H](N)CO)C(=O)N[C@@H](CCCNC(=N)N)C(=O)NCC(=O)N[C@@H](CCCNC(N)=O)C(=O)N[C@@H](CO)C(=O)N[C@@H](CCCNC(=N)N)C(=O)NCC(=O)N[C@@H](CCCNC(=N)N)C(=O)N[C@@H](CO)C(=O)NCC(=O)N[C@@H](CCCNC(=N)N)C(=O)N[C@@H](CO)C(=O)NCC(=O)N[C@@H](CO)C(N)=O) [cfc2]”, in assay [1], the “RA sera (%) positive” value is reported as 20% and the “RA sera: number of positive sera” value was 27. In assay [2], the “control sera (%) positive” value came out at 2.6% and the “control sera: number of positive sera” value is 4. In assay [3], the “SLE (%) positive” value was found to be 2% and the “SLE: number of positive sera” value is given as 1. For the same sequence, in assay [4], the “SSC: number of positive sera” value was 0. In addition, in assay [5], the “pSS (%) positive” value is 2% and the “pSS: number of positive sera” value is recorded as 1. In assay [6], the “PM/DM (%) positive” value amounted to 2% and the “PM/DM: number of positive sera” value came out at 1.
As for “SHQESTXGRSRGRSGXSGS (SHQEST[Cit]GRSRGRSG[Cit]SGS-NH2; N-terminus assumed; SMILES C[C@@H](O)[C@H](NC(=O)[C@H](CO)NC(=O)[C@H](CCC(=O)O)NC(=O)[C@H](CCC(N)=O)NC(=O)[C@H](Cc1c[nH]cn1)NC(=O)[C@@H](N)CO)C(=O)N[C@@H](CCCNC(N)=O)C(=O)NCC(=O)N[C@@H](CCCNC(=N)N)C(=O)N[C@@H](CO)C(=O)N[C@@H](CCCNC(=N)N)C(=O)NCC(=O)N[C@@H](CCCNC(=N)N)C(=O)N[C@@H](CO)C(=O)NCC(=O)N[C@@H](CCCNC(N)=O)C(=O)N[C@@H](CO)C(=O)NCC(=O)N[C@@H](CO)C(N)=O) [cfc9]”, in assay [1], the “RA sera (%) positive” value is 42% and the “RA sera: number of positive sera” value was determined as 57. In addition, in assay [2], the “control sera (%) positive” value came to 0.6% and the “control sera: number of positive sera” value was 1. The “SLE: number of positive sera” value in assay [3] is recorded as 0. The “SSC: number of positive sera” value in assay [4] came out at 0. Also, in assay [5], the “pSS (%) positive” value came to 4% and the “pSS: number of positive sera” value came to 2. Moreover, the “PM/DM: number of positive sera” value in assay [6] is given as 0.
As for “SHQESTRGRSRGXSGRSGS (SHQESTRGRSRG[Cit]SGRSGS-NH2; N-terminus assumed; SMILES C[C@@H](O)[C@H](NC(=O)[C@H](CO)NC(=O)[C@H](CCC(=O)O)NC(=O)[C@H](CCC(N)=O)NC(=O)[C@H](Cc1c[nH]cn1)NC(=O)[C@@H](N)CO)C(=O)N[C@@H](CCCNC(=N)N)C(=O)NCC(=O)N[C@@H](CCCNC(=N)N)C(=O)N[C@@H](CO)C(=O)N[C@@H](CCCNC(=N)N)C(=O)NCC(=O)N[C@@H](CCCNC(N)=O)C(=O)N[C@@H](CO)C(=O)NCC(=O)N[C@@H](CCCNC(=N)N)C(=O)N[C@@H](CO)C(=O)NCC(=O)N[C@@H](CO)C(N)=O) [cfc4]”, in assay [1], the “RA sera (%) positive” value is on record as 24% and the “RA sera: number of positive sera” value was determined as 32. In assay [2], the “control sera (%) positive” value came out at 1.3% and the “control sera: number of positive sera” value is on record as 2. For the same sequence, the “SLE: number of positive sera” value in assay [3] was 0. Moreover, in assay [4], the “SSC: number of positive sera” value stood at 0. For the same sequence, the “pSS: number of positive sera” value in assay [5] was 0. The “PM/DM: number of positive sera” value in assay [6] was determined as 0.
